In patent US20230190902A1, “IDENTIFICATION OF HLA-RESTRICTED PRAME PEPTIDE EPITOPES, PRAME-SPECIFIC T CELLS SUITABLE FOR "OFF-THE-SHELF" TREATMENT OF CANCER EXPRESSING PRAME” (Children's National Medical Center, priority 2020, published 2023):
“Also recorded” adds a separate entry of the source.

Columns and labels:
PRAME-specific T-cells = test: Epitope mapping by IFN-γ ELISpot (peptide mini-pools and single 15-mer peptides); assay type: cell-based, human; conditions: 10 μg/well
Description: (§1) PRAME Peptides. The PRAME peptide library consisting of 125 15-mer peptides overlapping by 11 amino acids and spanning the entire sequence of PRAME protein was designed to identify HLA class 1 and HLA class H-restricted epitopes (A&A Labs, San Diego, Calif.) 23 peptide pools comprising 10-12 peptides were prepared so that each 15-mer peptide was included in only two pools (FIGS. 7A and 7B). To determine minimal PRAME epitopes, additional 9-mer peptides overlapping by 8 amino acids spanning immunogenic 15-mer peptides were obtained from A&A Labs, San Diego, Calif. All peptides were reconstituted at 10 μg/μl in DMSO and stored at −80°C. until further use.
Epitope mapping. T-cell response to pools of peptide libraries and individual PRAME peptides were determined. by IFN-γ ELISpot assay. ELISpot assay was performed as previously described. 1×10^5 T-cells/well were plated alone, with actin (negative control), SEB (positive control), each peptide pool (1μg/well) and individual peptide (10 μg/well). IFN-γ spot-forming cells (SFC) were enumerated by Zellnet Consulting (Fort Lee, N.J.).
Responses that were at least 10 SFC/1×10^5 T-cells or greater than two-fold the background level of nonstimulated T-cells or T-cells stimulated with actin were considered positive responses.
In order to map the class 1-restricted responses, a mapping grid consisting of 23 mini-pools comprising 125 individual 15-mer peptides spanning the entire PRAME protein sequence to identify PRAME epitopes eliciting a response by ex-vivo expanded T-cells was used (FIG. 7A). IFN-γ production by PRAME- sensitized T-cells in response to stimulation with mini-pools was measured by ELISpot assay.
T-cell responses to single 15-mer peptides selected from the grid and their neighboring peptides were determined by IFN-γ ELISpot assay (FIG. 3B).

CD8+ T-cells [1] = test: Intracellular IFN-γ and TNF-α cytokine staining, CD8+ T-cells; assay type: cell-based, human; conditions: 6 h stimulation, 200 ng/peptide/well
Description: (§2) T-cells were stimulated for 6 h with PRAME PepMix or individual PRAME peptides (200 ng/peptide/well) in the presence of anti-CD28 and CD49d antibodies (RD Biosciences, San Jose, Calif., USA) and Brefeldin A (Golgiplug, BD Biosciences). Controls (unstimulated T-cells, actin, SEE) were included in each experiment. Intracellular IFN-γ (BioLegend, San Diego, Calif.) and TNF-α (Miltenyi Biotec, Bergisch Gladbach, Germany) staining were performed on fixed and permeabilized cells (Cytofix/Cytoperm, BD Biosciences). Data was acquired with a CytoFLEX cytometer (Beckman Coulter, Brea, Calif.), and analyzed using FlowJo Flow Cytometry software (FlowJo LLC, Ashland, Oreg.).
(§3) HLA restriction of these peptides was evaluated with intracellular IFN-γ and TNF-α cytokine staining.

CD4+ T-cells = test: Intracellular IFN-γ and TNF-α cytokine staining, CD4+ T-cells; assay type: cell-based, human; conditions: 6 h stimulation, 200 ng/peptide/well
Description: as §2, §3

CD8+ T-cells [2] = test: Minimal 9-mer epitope determination by IFN-γ ELISpot; assay type: cell-based, human; conditions: 9-mers overlapping by 8 amino acids
Description: as §1
(§4) Minimal epitopes recognized by HLA I-restricted cell lines were determined by IFN-γ ELISpot assay. To confirm the restricted HLA allele, anti-human HLA class 1 B35 antigen monoclonal antibody was used in the ELISpot plate (MyBioSource, San Diego, Calif.).
The minimal 9-mer epitopes overlapping by 8 amino acids spanning the 15-mer peptides were determined by IFN-γ ELISpot.

HLA-B*35 = target: T1, HLA-B*35 (Homo sapiens, UniProt P01889, A329T/A93T/A95T/C349S/D201E/D98Y/E176V/E187L/E204Q/E69T/I218V/K202T/L119I/Q94N/R155S/R180L/S121R/S35A/S48A/T118I/V127L/V306I/V36M/Y140F/Y91F); test: IFN-γ ELISpot with anti-HLA-B*35 antibody (HLA restriction); assay type: cell-based; conditions: versus T-cell product alone (FIG. 3G)
T1 construct: PRAME-specific T-cells were expanded from PBMCs obtained from twelve healthy donors; endogenous in cells; host or cells: ex vivo expanded PRAME-specific T-cell product from healthy donor PBMCs
Description: as §4
To confirm the HLA-B*35 restriction of FPEPEAAQP (SEQ ID NO: 6) further testing was performed using an anti-[…] antibody.

specificity of T-cell product with anti-HLA-B*35 antibody (HLA-B*35) | specificity of T-cell product with anti-HLA-B*35 antibody (HLA-B*35; listed as FPEPEAAQPM) | Sequence | T-cell response to single 15-mer PRAME peptide, IFN-γ ELISpot (PRAME-specific T-cells; T-cell product of FIG. 4B/4C) | IFN-γ and TNF-α release by CD8+ T-cells (CD8+ T-cells [1]) | IFN-γ and TNF-α release by CD4+ T-cells (CD4+ T-cells) | T-cell response to single 15-mer PRAME peptide, IFN-γ ELISpot (PRAME-specific T-cells; T-cell product of FIG. 3B/3C) | IFN-γ secretion upon stimulation with 9-mer (minimal epitope) (CD8+ T-cells [2])
 |  | EEQYIAQFTSQFLSL [compound 71] | recognition | no specificity | released IFN-γ and TNF-α; also recorded: release of IFN-γ and TNF-α |  | 
 |  | RLVELAGQSLLKDEA [compound 7] |  | activated | activated |  | 
 |  | IPVEVINDLFLKEGA [compound 44] |  | released IFN-γ and TNF-α; also recorded: HLA-I-restricted | no specificity | immunogenic | 
 |  | EKVKRKKNVLRLCCK [compound 50] | recognition | no specificity | released IFN-γ and TNF-α; also recorded: release of IFN-γ and TNF-α |  | 
 |  | SFPEPEAAQPMTKKR [compound 37] |  | released IFN-γ and TNF-α; also recorded: HLA-I-restricted | no specificity | immunogenic | 
 |  | EQPFIPVEVINDLFL [compound 43] |  | released IFN-γ and TNF-α; also recorded: HLA-I-restricted | no specificity | immunogenic | 
 |  | VEVLVDLFL |  |  |  |  | secreted IFN-γ; also recorded: minimal 9-mer peptides
decreased specificity | confirms HLA restriction | FPEPEAAQP |  |  |  |  | secreted IFN-γ; also recorded: minimal 9-mer peptides
 |  | SPEKEEQYIAQFTSQ [compound 70] | recognition |  |  |  | 
 |  | ASIYSFPEPEAAQPM (ASLYSFPEPEAAQPM) [compound 36] |  | released IFN-γ and TNF-α; also recorded: HLA-I-restricted | no specificity | immunogenic | 
